What was measured:
[1] = target: T1, Amine oxidase [flavin-containing] A (Homo sapiens, UniProt P21397); assay: biochemical
T1 sequence (P21397 whole entry): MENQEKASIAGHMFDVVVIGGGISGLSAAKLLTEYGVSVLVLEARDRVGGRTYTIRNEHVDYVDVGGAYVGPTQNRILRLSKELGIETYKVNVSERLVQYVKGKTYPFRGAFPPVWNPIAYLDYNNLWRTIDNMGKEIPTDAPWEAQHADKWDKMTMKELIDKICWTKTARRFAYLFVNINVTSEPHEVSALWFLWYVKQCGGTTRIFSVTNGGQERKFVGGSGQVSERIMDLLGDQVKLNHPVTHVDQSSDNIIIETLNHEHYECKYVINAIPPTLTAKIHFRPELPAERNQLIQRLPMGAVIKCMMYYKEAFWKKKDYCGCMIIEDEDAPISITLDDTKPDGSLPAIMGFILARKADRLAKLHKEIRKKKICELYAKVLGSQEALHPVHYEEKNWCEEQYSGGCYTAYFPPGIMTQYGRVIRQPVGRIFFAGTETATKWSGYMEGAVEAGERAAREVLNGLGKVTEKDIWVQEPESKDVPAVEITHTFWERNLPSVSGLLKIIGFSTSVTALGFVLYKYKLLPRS
Description: Inhibition of human recombinant MAO-A expressed in baculovirus infected insect cells by luminescence assay

[2] = target: T2, Lysine-specific histone demethylase 2 (Homo sapiens, UniProt Q8NB78)
T2 sequence (Q8NB78 whole entry): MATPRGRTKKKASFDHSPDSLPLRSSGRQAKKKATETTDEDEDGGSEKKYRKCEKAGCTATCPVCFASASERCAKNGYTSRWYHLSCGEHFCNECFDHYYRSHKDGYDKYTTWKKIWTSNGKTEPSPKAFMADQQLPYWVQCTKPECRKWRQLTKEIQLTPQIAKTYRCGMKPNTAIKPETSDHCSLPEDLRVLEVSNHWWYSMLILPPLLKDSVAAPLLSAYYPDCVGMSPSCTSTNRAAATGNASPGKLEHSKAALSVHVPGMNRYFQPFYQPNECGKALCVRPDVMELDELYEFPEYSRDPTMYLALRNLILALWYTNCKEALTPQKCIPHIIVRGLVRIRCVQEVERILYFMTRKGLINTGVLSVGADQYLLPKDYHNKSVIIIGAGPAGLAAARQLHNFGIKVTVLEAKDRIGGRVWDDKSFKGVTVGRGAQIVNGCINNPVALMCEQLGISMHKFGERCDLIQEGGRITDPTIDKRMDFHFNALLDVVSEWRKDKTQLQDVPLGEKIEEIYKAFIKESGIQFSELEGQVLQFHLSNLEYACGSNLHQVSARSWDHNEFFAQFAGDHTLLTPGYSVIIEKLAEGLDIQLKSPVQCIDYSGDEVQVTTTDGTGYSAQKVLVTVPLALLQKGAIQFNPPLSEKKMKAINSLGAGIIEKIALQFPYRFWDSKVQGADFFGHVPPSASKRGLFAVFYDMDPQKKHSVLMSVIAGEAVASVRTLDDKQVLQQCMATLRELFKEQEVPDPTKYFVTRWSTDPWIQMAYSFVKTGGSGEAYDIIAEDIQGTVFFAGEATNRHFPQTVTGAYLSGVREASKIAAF
Description: Inhibition of human full length LSD2 using biotin-labeled H3K4me2 (1 to 24 residues) as substrate after 1 hr by TR-FRET assay

[3] = target: T3, Amine oxidase [flavin-containing] B (Homo sapiens, UniProt P27338); assay: biochemical
T3 sequence (P27338 whole entry): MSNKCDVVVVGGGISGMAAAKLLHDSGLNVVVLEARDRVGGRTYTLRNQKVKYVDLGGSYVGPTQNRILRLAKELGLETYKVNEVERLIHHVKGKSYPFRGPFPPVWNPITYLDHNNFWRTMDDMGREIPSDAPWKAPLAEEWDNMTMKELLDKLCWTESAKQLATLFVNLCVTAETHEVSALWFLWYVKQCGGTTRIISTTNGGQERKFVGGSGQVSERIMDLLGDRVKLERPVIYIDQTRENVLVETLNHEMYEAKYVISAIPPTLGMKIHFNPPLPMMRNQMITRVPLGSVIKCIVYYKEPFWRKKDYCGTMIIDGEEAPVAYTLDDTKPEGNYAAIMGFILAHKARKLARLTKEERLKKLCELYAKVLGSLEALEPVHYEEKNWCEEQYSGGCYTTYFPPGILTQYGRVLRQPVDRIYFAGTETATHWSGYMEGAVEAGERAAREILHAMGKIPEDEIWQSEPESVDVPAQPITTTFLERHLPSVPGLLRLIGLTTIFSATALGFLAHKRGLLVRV
Description: Inhibition of human recombinant MAO-B expressed in baculovirus infected insect cells by luminescence assay

MV4-11 [4] = assay: Antiproliferative activity against human MV4-11 cells after 3 days by MTS assay; type: functional, cell-based; settings: MV4-11, 72 h
MV4-11 [5] = assay: Antiproliferative activity against human MV4-11 cells after 10 days by MTS assay; type: functional, cell-based; settings: MV4-11, 240 h
RPMI-8226 [6] = assay: Antiproliferative activity against human RPMI8226 cells after 10 days by MTS assay; type: functional, cell-based; settings: RPMI-8226, 240 h
RPMI-8226 [7] = assay: Antiproliferative activity against human RPMI8226 cells after 3 days by MTS assay; type: functional, cell-based; settings: RPMI-8226, 72 h

COc1ncccc1CN[C@@H]1[C@H]2Cc3ccccc3[C@H]21 (racemic)
IC50 [1]: > 100 µM
IC50 [2]: > 100 µM
IC50 [3]: > 100 µM

N[C@H]1CC[C@H](N[C@H]2[C@H]3Cc4ccccc4[C@H]32)CC1 (racemic)
IC50 (MV4-11 [4]): > 20 µM
IC50 (MV4-11 [5]): 0.7 µM
IC50 (RPMI-8226 [6]): > 20 µM
IC50 (RPMI-8226 [7]): > 20 µM
IC50 [1]: > 100 µM
IC50 [3]: > 100 µM

NC1CCC(N[C@@H]2C[C@H]2c2ccccc2)CC1 (stereo partly specified)
IC50 (MV4-11 [4]): > 20 µM
IC50 (MV4-11 [5]): 0.03 µM
IC50 (RPMI-8226 [6]): > 20 µM
IC50 (RPMI-8226 [7]): > 20 µM
IC50 [1]: > 100 µM
IC50 [2]: > 100 µM

N[C@@H]1[C@H]2Cc3ccccc3[C@@H]12 (relative stereo)
IC50 [1]: > 100 µM
IC50 [3]: > 100 µM

N[C@H]1CC[C@@H](N[C@@H]2[C@H]3Cc4ccccc4[C@H]32)CC1 (racemic)
IC50 [1]: > 100 µM
IC50 [3]: > 100 µM

N[C@H]1CC[C@@H](N[C@H]2[C@H]3Cc4ccccc4[C@H]32)CC1 (racemic)
IC50 (MV4-11 [4]): > 20 µM
IC50 (MV4-11 [5]): 0.2 µM
IC50 (RPMI-8226 [6]): > 20 µM
IC50 (RPMI-8226 [7]): > 20 µM
IC50 [1]: > 100 µM
IC50 [3]: > 100 µM

COc1ncccc1CN[C@H]1[C@H]2Cc3ccccc3[C@H]21 (racemic)
IC50 [1]: 79.7 µM
IC50 [3]: > 100 µM

N[C@H]1CC[C@H](N[C@@H]2[C@H]3Cc4ccccc4[C@H]32)CC1 (racemic)
IC50 [1]: > 100 µM
IC50 [3]: > 100 µM

N[C@H]1[C@H]2Cc3ccccc3[C@@H]12 (relative stereo)
IC50 [1]: > 100 µM
IC50 [3]: > 100 µM

From ChEMBL document CHEMBL4130492, “Tying up tranylcypromine: Novel selective histone lysine specific demethylase 1 (LSD1) inhibitors” (Eur J Med Chem, 2017)
